From patent publication US10618901B2 (GlaxoSmithKline Intellectual Property Development Limited, priority 2014, dated 2020)
Read-outs that look alike come from different tables or passages of the source.

Molecular target: T1, 6HIS-Tev-LRRK2 (1326-2527) (Homo sapiens, UniProt Q5S007)
T1 construct: A LRRK2 cDNA encoding residues 1326-2527 was received from Dundee University; made in house; host or cells: Spodoptera frugiperda Sf9 (baculovirus, pFB-HTb)
T1 sequence (Q5S007 1326-2527): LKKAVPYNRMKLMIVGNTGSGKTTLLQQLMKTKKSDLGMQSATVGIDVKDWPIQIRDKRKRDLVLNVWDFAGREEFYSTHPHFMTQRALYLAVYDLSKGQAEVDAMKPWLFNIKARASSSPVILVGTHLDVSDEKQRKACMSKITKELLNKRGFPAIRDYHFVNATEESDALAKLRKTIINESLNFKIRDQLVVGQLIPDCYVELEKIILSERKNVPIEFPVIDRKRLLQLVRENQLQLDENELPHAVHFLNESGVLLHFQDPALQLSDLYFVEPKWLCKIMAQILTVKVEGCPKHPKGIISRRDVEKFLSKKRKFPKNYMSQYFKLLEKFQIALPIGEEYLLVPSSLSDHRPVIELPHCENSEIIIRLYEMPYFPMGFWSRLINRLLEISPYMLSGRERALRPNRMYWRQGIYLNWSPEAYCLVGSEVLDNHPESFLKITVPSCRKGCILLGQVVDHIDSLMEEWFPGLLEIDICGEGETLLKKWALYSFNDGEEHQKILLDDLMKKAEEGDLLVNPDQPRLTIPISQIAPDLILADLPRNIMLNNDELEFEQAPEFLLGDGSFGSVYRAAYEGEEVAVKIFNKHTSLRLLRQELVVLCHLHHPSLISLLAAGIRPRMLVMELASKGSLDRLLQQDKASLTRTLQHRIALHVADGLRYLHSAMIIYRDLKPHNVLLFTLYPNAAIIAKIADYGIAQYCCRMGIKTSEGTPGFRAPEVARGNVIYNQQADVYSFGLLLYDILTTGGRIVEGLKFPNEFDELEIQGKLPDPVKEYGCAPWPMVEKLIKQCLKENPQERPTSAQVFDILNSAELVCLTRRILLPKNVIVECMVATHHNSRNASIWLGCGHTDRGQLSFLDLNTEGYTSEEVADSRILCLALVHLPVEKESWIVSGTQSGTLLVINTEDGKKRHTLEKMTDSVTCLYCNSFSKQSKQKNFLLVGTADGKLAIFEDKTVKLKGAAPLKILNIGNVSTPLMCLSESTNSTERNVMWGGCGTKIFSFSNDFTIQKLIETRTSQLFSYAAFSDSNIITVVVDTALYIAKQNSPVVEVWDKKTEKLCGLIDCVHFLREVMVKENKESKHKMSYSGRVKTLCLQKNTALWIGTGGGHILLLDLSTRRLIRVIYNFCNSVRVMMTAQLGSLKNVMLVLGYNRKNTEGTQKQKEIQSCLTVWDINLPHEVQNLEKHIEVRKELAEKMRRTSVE
Test: Recombinant LRRK2 enzyme peptide substrate TR-FRET assay
Type: biochemical
Details: 60 nM LRRK2 enzyme, 10 uM ATP
Protocol: A LRRK2 cDNA encoding residues 1326-2527 was received from Dundee University (described in M. Jaleel et al., 2007, Biochem J, 405: 407-417). This gene fragment was subcloned into pFB-HTb (Invitrogen) using BamHI and NotI restriction sites. The LRRK2 plasmid was recombined into the baculovirus genome according to the BAC-to-BAC protocol described by Invitrogen. Transfection into Spodoptera frugiperda (Sf9) insect cells was performed using Cellfectin (Invitrogen), according to the manufacturer's protocol to generate P1 and P2 baculovirus stocks.
Sf9 cells were grown in HyClone SFX (Thermo Scientific) growth media at 27° C., 80 rpm in shake flask until of a sufficient volume to inoculate a bioreactor. The cells were grown in a 20 liter working volume Wave bioreactor (GE Healthcare) at 27° C., 50% dissolved oxygen and an agitation rate 22 rocks per minute, 10 degree rock angle, 200 ml/min air with a cell concentration of approximately 6×e6 cells/ml. The cells were infected with P2 Baculovirus at a multiplicity of infection (MOI) of 3. The cultivation was continued for a 48 hour expression phase. The infected cells were removed from the growth media by centrifugation at 2500 g using a Sorvall RC 3C Plus centrifuge at 2500 g for 20 minutes. The cell pellet was immediately frozen and subsequently supplied for purification.
A 260 g pellet was allowed to thaw in a water bath at 27° C. with 800 ml lysis buffer/buffer A (50 mm Tris-HCl pH 8.5, 300 mM NaCl, 1 mm DTT, 10% glycerol, 1 ml/L calbiochem complete protease inhibitor cocktail and benzonase (50 ul/800 ml)) before being dounce homogenised on ice using 20 strokes per 100 ml. The suspension was packed in ice and sonicated at 50% amplitude for 3 min 10 sec on/off using a ¾″ probe. The suspension was then centrifuged at 100,000 g for 90 min, at 4° C.
The lysate (700 ml) was decanted from the insoluble pellet and contacted for 3 h at 4 C with 10 ml His bind Ni NTA resin by end over end mixing. The resin was recovered by centrifugation, 3000 g, 5 min at 4 C, and packed in an XK16 column. The column was then washed with 10 column volumes buffer A, 10 column volumes buffer B (buffer A+1M NaCl) and 10 column volumes buffer C (buffer A+20 mM imidazole). The column was then eluted with 15 column volumes buffer D (buffer A+300 mM imidazole) collecting 2 ml fractions. All washes and elution were conducted at 4 ml/min.
Fractions identified by SDS-PAGE as containing protein of interest were pooled and loaded directly onto a 320 ml SEC Superdex 200 pg column that was pre-equilibrated with buffer E (50 mM Tris-HCl pH 8.5, 300 mM NaCl, 10% glycerol, 1 mM DTT). The column was loaded and eluted with 1.2 column volumes buffer E at 2 ml/min collecting 2 ml fractions. Fractions identified by SDS-PAGE as containing protein of interest were tested for activity.
Production of Biotin-Loner LRRKtide
The peptide (biotin-[…]-OH) was assembled at a […] scale using FMOC solid phase peptide synthesis on an ACT 357 MPS automated peptide synthesizer. The resulting crude peptide was cleaved from the resin using a 95:2.5:2.5 mix of trifluoroacetic acid: triisopropylsilane: water. The crude cleaved peptide was purified by reverse phase HPLC, eluting with a 5-35% gradient of 0.1% trifluoroacetic acid/acetonitrile in 0.1% trifluoroacetic acid/water.
Recombinant LRRK2 Enzyme Peptide Substrate TR-FRET Assay
This assay for LRRK2 inhibition is based on the detection of phosphorylation of the peptide ‘longer LRRKtide’ (biotin-[…]-OH) using a time resolved-fluorescence resonance energy transfer (TR-FRET) assay. It uses an antibody labelled europium chelate donor, W-1024 (Eu) and Streptavidin-Surelight APC acceptor (APC). When in close proximity, the excitation of Eu at 330 nm leads to energy transfer to APC with emission of light at 665 nm,
Assay Protocol • 1. A 10 mM test compound was dissolved in 100% DMSO and serially diluted 1 in 4. […]

[1] = read-out: pIC50 in the recombinant LRRK2 enzyme peptide substrate TR-FRET assay (converted)
[2] = 1 uM Biotin-longer LRRKtide, read-out: recombinant LRRK2 enzyme peptide substrate TR-FRET assay (pIC50) (converted)

Row | IC50 [2] [µM] | recombinant LRRK2 enzyme peptide substrate TR-FRET assay (pIC50) (1 uM Biotin-longer LRRKtide) | Compound | other results
1 | – | – | CCOc1nc(Nc2cnn(C3CCCC3(C)O)c2C)nc2[nH]ccc12 (racemic) [Example E70, Trans-2-(4-((4-ethoxy-7H-pyrrolo-[2,3-d]pyrimidin-2-yl)amino)-5-methyl-1H-pyrazol-1-yl)-1-methylcyclopentanol] | IC50 [1]: ≤ 0.1 µM
2 | 0.0126 | – | CCOc1nc(Nc2cnn(C3CCN(C)C3)c2C)nc2[nH]ccc12 (single isomer, unassigned) [Example E14, 4-ethoxy-N-(5-methyl-1-(1-methylpyrrolidin-3-yl)-1H-pyrazol-4-yl)-7H-pyrrolo-[2,3-d]-pyrimidin-2-amine] | –
3 | – | – | CCOc1nc(Nc2cnn(C3CCN(C4COC4)C3)c2C)nc2[nH]ccc12 (single isomer, unassigned) [Example E67, 4-ethoxy-N-(5-methyl-1-(1-(oxetan-3-yl)-pyrrolidin-3-yl)-1H-pyrazol-4-yl)-7H-pyrrolo-[2,3-d]pyrimidin-2-amine] | IC50 [1]: ≤ 0.1 µM
4 | 0.0126 | – | CCOc1nc(Nc2cnn(CC(C)(C)O)c2C)nc2[nH]ccc12 [Example E3, 1-(4-((4-ethoxy-7H-pyrrolo-[2,3-d]pyrimidin-2-yl)amino)-5-methyl-1H-pyrazol-1-yl)-2-methylpropan-2-ol] | –
5 | – | – | CCOc1nc(Nc2cnn(CCOC)c2Cl)nc2[nH]ccc12 [Example E21, N-(5-chloro-1-(2-methoxyethyl)-1H-pyrazol-4-yl)-4-ethoxy-7H-pyrrolo-[2,3-d]-pyrimidin-2-amine] | IC50 [1]: ≤ 0.1 µM
6 | 0.00794 | – | CCOc1nc(Nc2cnn(C3CCOCC3)c2C2CC2)nc2[nH]ccc12 [Example E44, N-(5-cyclopropyl-1-(tetrahydro-2H-pyran-4-yl)-1H-pyrazol-4-yl)-4-ethoxy-7H-pyrrolo-[2,3-d]pyrimidin-2-amine] | –
7 | 0.01 | – | CCOc1nc(Nc2cnn(CCN3CCOCC3)c2C)nc2[nH]ccc12 [Example E45, 4-ethoxy-N-(5-methyl-1-(2-morpholinoethyl)-1H-pyrazol-4-yl)-7H-pyrrolo-[2,3-d]pyrimidin-2-amine] | –
8 | 0.00794 | – | CCOc1nc(Nc2cnn(C3CC(O)C3)c2C)nc2[nH]ccc12 (stereo not shown) [Example E52, 3-(4-((4-ethoxy-7H-pyrrolo-[2,3-d]-pyrimidin-2-yl)-amino)-5-methyl-1H-pyrazol-1-yl)cyclo-butanol] | –
9 | – | 8.1 | cis-3-(4-((4-ethoxy-7H-pyrrolo[2,3-d]pyrimidin-2-yl)amino)-5-methyl-1H-pyrazol-1-yl)cyclopentanol [Example E56] | –
10 | – | 8.3 | trans-2-(4-((4-ethoxy-7H-pyrrolo-[2,3-d]pyrimidin-2-yl)amino)-5-methyl-1H-pyrazol-1-yl)-cyclopentanol [Example E40] | –
11 | – | 8 | trans-2-(4-((4-ethoxy-7H-pyrrolo-[2,3-d]pyrimidin-2-yl)amino)-5-methyl-1H-pyrazol-1-yl)-cyclopentanol [Example E41] | –
12 | – | 9 | trans-2-(5-chloro-4-((4-ethoxy-7H-pyrrolo-[2,3-d]-pyrimidin-2-yl)amino)-1H-pyrazol-1-yl)-cyclopentanol [Example E37] | –
13 | – | 9.1 | trans-2-(5-chloro-4-((4-ethoxy-7H-pyrrolo-[2,3-d]-pyrimidin-2-yl)amino)-1H-pyrazol-1-yl)cyclopentanol [Example E38] | –
